The record followed here is patent publication US8546565B2, “Quinazolinamide derivatives” (Merck Patent Gesellschaft, priority 2008, dated 2013).

This assay addresses T1, Recombinant human HSP90a (Homo sapiens, UniProt P07900).
T1 construct: host or cells: E. coli
Kind of assay: HSP90 radioligand filter binding test ([3H]17AAG competition). The conditions noted are these: [3H]17AAG 0.08 μM, HSP90 1.5 μg/assay, 22° C., 30 min; read-out: IC50 (HSP90 inhibition). The text has this: Test Method for the Measurement of HSP90 Inhibitors
The binding of geldanamycin or 17-allylamino-17-demethoxygeldanamycin (17AAG) to HSP90 and competitive inhibition thereof can be utilised in order to determine the inhibitory activity of the compounds according to the invention (Carreras et al. 2003, Chiosis et al. 2002).
In the specific case, a radioligand filter binding test is used. The radioligand used here is tritium-labelled 17-allylaminogeldanamycin, [3H]17AAG. This filter binding test allows a targeted search for inhibitors which interfere with the ATP binding site.
Recombinant human HSP90a (E. coli expressed, 95% purity);
[3H]17AAG (17-allylaminogeldanamycin, [allylamino-2,3-^3H. Specific activity: 1.11×10^12 Bq/mmol (Moravek, MT-1717);
HEPES filter buffer (50 mM HEPES, pH 7.0, 5 mM MgCl2, BSA 0.01%)
Multiscreen FB (1 μm) filter plate (Millipore, MAFBNOB 50).
The 96-well microtitre filter plates are firstly irrigated and coated with 0.1% of polyethylenimine.
The test is carried out under the following conditions:
Reaction temperature 22° C.
Reaction time: 30 min., shaking at 800 rpm
50 mM HEPES HCl, pH 7.0, 5 mM MgCl2, 0.01% (w/v) of BSA
At the end of the reaction, the supernatant in the filter plate is removed by suction with the aid of a vacuum manifold (Multiscreen Separation System, Millipore), and the filter is washed twice.
The filter plates are then measured in a beta counter (Microbeta, Wallac) with scintillator (Microscint 20, Packard).
“% of control” is determined from the “counts per minutes” values, and the IC-50 value of a compound is calculated therefrom.
As usually defined, the IC50 is the point on the concentration scale where inhibition reaches its midpoint. Consider `C[C@@H]1CCCN1C(=O)c1ccccc1-c1ccc2nc(N)nc(C(=O)N3Cc4ccccc4C3)c2c1` [Compound A63], for which the half-maximal inhibitory concentration (IC50) was 10 to 1000 nM.
For `CC(C)(C)NC(=O)c1ccccc1-c1ccc2nc(N)nc(C(=O)N3Cc4ccccc4C3)c2c1` [Compound A47, 2-[2-Amino-4-(1,3-dihydroisoindole-2-carbonyl)quinazolin-6-yl]-N-tert-butylbenzamide] the value was 10 to 1000 nM.
As for `NCC(=O)OC1CCN(S(=O)(=O)c2ccccc2-c2ccc3nc(N)nc(C(=O)N4Cc5ccccc5C4)c3c2)CC1` [Compound A10, 1-{2-[2-amino-4-(1,3-dihydroisoindole-2-carbonyl)quinazolin-6-yl]benzenesulfonyl}piperidin-4-yl aminoacetate], the figure is 10 to 1000 nM.
For `CNCCNS(=O)(=O)c1ccccc1-c1ccc2nc(N)nc(C(=O)N3Cc4ccccc4C3)c2c1` [Compound A16, 2-[2-amino-4-(1,3-dihydroisoindole-2-carbonyl)quinazolin-6-yl]-N-(2-methylaminoethyl)benzenesulfonamide] the value was 10 to 1000 nM; for `Nc1nc(C(=O)N2Cc3ccccc3C2)c2cc(-c3ccccc3C(=O)N3CCC(O)C3)ccc2n1` (stereo not shown) [Compound A36], 10 to 1000 nM.
In the case of `CN(Cc1cncn1C)S(=O)(=O)c1ccccc1-c1ccc2nc(N)nc(C(=O)N3Cc4ccccc4C3)c2c1` [Compound A18], the IC50 is 10 to 1000 nM.
As for `CCN(CC)S(=O)(=O)c1ccccc1-c1ccc2nc(N)nc(C(=O)N3Cc4ccccc4C3)c2c1` [Compound A45, 2-[2-Amino-4-(1,3-dihydroisoindole-2-carbonyl)quinazolin-6-yl]-N,N-diethylbenzenesulfonamide], the figure is 10 to 1000 nM.
In the case of `CCN(CC)C(=O)c1ccc(Cl)cc1-c1ccc2nc(N)nc(C(=O)N3Cc4ccccc4C3)c2c1` [Compound A87, 2-[2-Amino-4-(1,3-dihydroisoindole-2-carbonyl)quinazolin-6-yl]-4-chloro-N,N-diethylbenzamide], the 50% inhibitory concentration (IC50) was 10 to 1000 nM.
As for `Nc1nc(C(=O)N2Cc3ccccc3C2)c2cc(-c3cc(F)c(F)cc3C(=O)N3CCC3)ccc2n1` [Compound A80, {2-Amino-6-[2-(azetidine-1-carbonyl)-4,5-difluorophenyl]quinazolin-4-yl}-(1,3-dihydroisoindol-2-yl)methanone], the figure is 10 to 1000 nM; as for `CCN(CC)C(=O)c1cc(OC)c(OC)cc1-c1ccc2nc(N)nc(C(=O)N3Cc4ccccc4C3)c2c1` [Compound A88, 2-[2-Amino-4-(1,3-dihydroisoindole-2-carbonyl)quinazolin-6-yl]-N,N-diethyl-4,5-dimethoxybenzamide], 1000 to 10000 nM; as for `Nc1nc(C(=O)N2Cc3ccccc3C2)c2cc(-c3ccccc3C(=O)N3CCC(N)C3)ccc2n1` (stereo not shown) [Compound A43, {2-amino-6-[2-(3-aminopyrrolidine-1-carbonyl)phenyl]quinazolin-4-yl}-(1,3-dihydroisoindol-2-yl)methanone], 10 to 1000 nM.
For `Nc1nc(C(=O)N2Cc3ccccc3C2)c2cc(-c3ccccc3C(=O)NC3CC3)ccc2n1` [Compound A48, 2-[2-Amino-4-(1,3-dihydroisoindole-2-carbonyl)quinazolin-6-yl]-N-cyclopropylbenzamide] the value was 10 to 1000 nM; for `CNS(=O)(=O)c1ccccc1-c1ccc2nc(N)nc(C(=O)N3Cc4ccccc4C3)c2c1` [Compound A6, 2-[2-Amino-4-(1,3-dihydroisoindole-2-carbonyl)quinazolin-6-yl]-N-methylbenzenesulfonamide], 10 to 1000 nM.
As for `CN(C(C)(C)C)S(=O)(=O)c1ccccc1-c1ccc2nc(N)nc(C(=O)N3Cc4ccccc4C3)c2c1` [Compound A59, 2-[2-Amino-4-(1,3-dihydroisoindole-2-carbonyl)quinazolin-6-yl]-N-tert-butyl-N-methylbenzenesulfonamide], the IC50 fell in the range of 10 to 1000 nM.
As for `CNCCN(C)S(=O)(=O)c1ccccc1-c1ccc2nc(N)nc(C(=O)N3Cc4ccccc4C3)c2c1` [Compound A13, 2-[2-Amino-4-(1,3-dihydroisoindole-2-carbonyl)quinazolin-6-yl]-N-methyl-N-(2-methylaminoethyl)benzenesulfonamide], the figure is 10 to 1000 nM; as for `Nc1nc(C(=O)N2Cc3ccccc3C2)c2cc(-c3ccccc3C(=O)N3CCCC3C(=O)O)ccc2n1` (stereo not shown) [Compound A44, 1-{2-[2-Amino-4-(1,3-dihydroisoindole-2-carbonyl)quinazolin-6-yl]-benzoyl}pyrrolidine-2-carboxylic acid], 10 to 1000 nM; as for `Nc1nc(C(=O)N2Cc3ccccc3C2)c2cc(-c3ccccc3S(=O)(=O)NC3CCC3)ccc2n1` [Compound A51, 2-[2-Amino-4-(1,3-dihydroisoindole-2-carbonyl)quinazolin-6-yl]-N-cyclobutylbenzenesulfonamide], 10 to 1000 nM.
For `CCNC(=O)c1cc(F)c(F)cc1-c1ccc2nc(N)nc(C(=O)N3Cc4ccccc4C3)c2c1` [Compound A74, 2-[2-Amino-4-(1,3-dihydroisoindole-2-carbonyl)quinazolin-6-yl]-N-ethyl-4,5-difluorobenzamide] the value was 10 to 1000 nM.
For `COc1cc(C(=O)NC(C)(C)C)c(-c2ccc3nc(N)nc(C(=O)N4Cc5ccccc5C4)c3c2)cc1OC` [Compound A85, 2-[2-Amino-4-(1,3-dihydroisoindole-2-carbonyl)quinazolin-6-yl]-N-tert-butyl-4,5-dimethoxybenzamide] the value was more than 10000 nM; for `CC1CCCN1C(=O)c1cc(F)c(F)cc1-c1ccc2nc(N)nc(C(=O)N3Cc4ccccc4C3)c2c1` (stereo not shown) [Compound A79, {2-Amino-6-[4,5-difluoro-2-(2-methylpyrrolidine-1-carbonyl)phenyl]quinazolin-4-yl}-(1,3-dihydroisoindol-2-yl)methanone], 10 to 1000 nM; for `CC1CCCN1C(=O)c1ccccc1-c1ccc2nc(N)nc(C(=O)N3Cc4ccccc4C3)c2c1` (stereo not shown) [Compound A42, {2-Amino-6-[2-(2-methylpyrrolidine-1-carbonyl)phenyl]quinazolin-4-yl}-(1,3-dihydroisoindol-2-yl)methanone], 10 to 1000 nM.
As to `CCN(CCO)S(=O)(=O)c1ccccc1-c1ccc2nc(N)nc(C(=O)N3Cc4ccccc4C3)c2c1` [Compound A25, 2-[2-Amino-4-(1,3-dihydroisoindole-2-carbonyl)quinazolin-6-yl]-N-ethyl-N-(2-hydroxyethyl)benzenesulfonamide], the IC50 is 10 to 1000 nM.
Take `Nc1nc(C(=O)N2Cc3ccccc3C2)c2cc(-c3ccccc3C(=O)N(CCO)CCO)ccc2n1` [Compound A73]: the IC50 is 10 to 1000 nM.
For `CCN(CC)C(=O)c1ccccc1-c1ccc2nc(N)nc(C(=O)N3Cc4ccccc4C3)c2c1` [Compound A40, 2-[2-Amino-4-(1,3-dihydroisoindole-2-carbonyl)quinazolin-6-yl]-N,N-diethylbenzamide] the value was 10 to 1000 nM.
For `Nc1nc(C(=O)N2Cc3ccccc3C2)c2cc(-c3ccccc3S(=O)(=O)N3CC(F)(F)C3)ccc2n1` [Compound A60] the value was 10 to 1000 nM.
As for `CNC(=O)C1CCCN1S(=O)(=O)c1ccccc1-c1ccc2nc(N)nc(C(=O)N3Cc4ccccc4C3)c2c1` (stereo not shown) [Compound A58, 1-{2-[2-amino-4-(1,3-dihydroisoindole-2-carbonyl)quinazolin-6-yl]benzenesulfonyl}pyrrolidine-2-methylamide], the figure is 10 to 1000 nM.
For the molecule `CCN(CCN(C)C)C(=O)c1ccccc1-c1ccc2nc(N)nc(C(=O)N3Cc4ccccc4C3)c2c1` [Compound A55], the IC50 fell in the range of 10 to 1000 nM.
Take `CCNC(=O)c1ccc(Cl)cc1-c1ccc2nc(N)nc(C(=O)N3Cc4ccccc4C3)c2c1` [Compound A86, 2-[2-Amino-4-(1,3-dihydroisoindole-2-carbonyl)quinazolin-6-yl]-4-chloro-N-ethylbenzamide]: the half-inhibitory concentration (IC50) was in the range of 10 to 1000 nM.
As for `Nc1nc(C(=O)N2Cc3ccccc3C2)c2cc(-c3cc(F)c(F)cc3C(=O)N3CCCC3)ccc2n1` [Compound A78, {2-Amino-6-[4,5-difluoro-2-(pyrrolidine-1-carbonyl)phenyl]quinazolin-4-yl}-(1,3-dihydroisoindol-2-yl)methanone], the figure is 10 to 1000 nM; as for `CC1CCC(C)N1C(=O)c1ccccc1-c1ccc2nc(N)nc(C(=O)N3Cc4ccccc4C3)c2c1` (stereo not shown) [Compound A57], 10 to 1000 nM.
As for `CN(C)S(=O)(=O)c1ccccc1-c1ccc2nc(N)nc(C(=O)N3Cc4ccccc4C3)c2c1` [Compound A4], the figure is 10 to 1000 nM; as for `CCN(C)C(=O)c1cc(F)c(F)cc1-c1ccc2nc(N)nc(C(=O)N3Cc4ccccc4C3)c2c1` [Compound A77, 2-[2-Amino-4-(1,3-dihydroisoindole-2-carbonyl)quinazolin-6-yl]-N-ethyl-4,5-difluoro-N-methylbenzamide], 10 to 1000 nM.
For `CCNC(=O)c1cc(OC)c(OC)cc1-c1ccc2nc(N)nc(C(=O)N3Cc4ccccc4C3)c2c1` [Compound A84, 2-[2-Amino-4-(1,3-dihydroisoindole-2-carbonyl)quinazolin-6-yl]-N-ethyl-4,5-dimethoxybenzamide] the value was more than 10000 nM; for `Nc1nc(C(=O)N2Cc3ccccc3C2)c2cc(-c3ccccc3S(=O)(=O)N3CCC(O)C3)ccc2n1` (stereo not shown) [Compound A31], 10 to 1000 nM.
